In PubChem BioAssay (NCI):
Values joined by “and” are separate entries in the source; they are usually repeats but may differ in a detail not shown here. Equal values may be shown once.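 Protocol summary: plate cells (96-well), add compound at 5 concentrations, incubate 48 h, interpolate endpoints linearly. GI50 marks 50% less growth. TGI: concentration producing complete growth inhibition.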

Key:
Experiment in all cases: inhibition of tumour cell growth, NCI panel, 48 h
TK-10 renal = test system: TK-10 renal
NCI-H460 lung = test system: NCI-H460 lung
UACC-62 melanoma = test system: UACC-62 melanoma
786-0 renal = test system: 786-0 renal
EKVX NSCLC = test system: EKVX NSCLC
SNB-75 CNS = test system: SNB-75 CNS
HOP-62 NSCLC = test system: HOP-62 NSCLC
UO-31 renal = test system: UO-31 renal
BT-549 breast = test system: BT-549 breast
CAKI-1 renal = test system: CAKI-1 renal

SMILES | GI50 (TK-10 renal) | TGI (TK-10 renal) [µM] | GI50 (NCI-H460 lung) | TGI (NCI-H460 lung) | GI50 (UACC-62 melanoma) | TGI (UACC-62 melanoma) | GI50 (786-0 renal) | TGI (786-0 renal) | GI50 (EKVX NSCLC) | TGI (EKVX NSCLC) | GI50 (SNB-75 CNS) | TGI (SNB-75 CNS) [µM] | GI50 (HOP-62 NSCLC) | TGI (HOP-62 NSCLC) | GI50 (UO-31 renal) | TGI (UO-31 renal) | GI50 (BT-549 breast) | TGI (BT-549 breast) | TGI (CAKI-1 renal) | GI50 (CAKI-1 renal)
Cc1ccc(C(=O)/C(=C/c2ccc([N+](=O)[O-])cc2)S(=O)Cc2ccccc2)cc1 (stereo unspecified) | 1.78 µM | 3.26 | 1.83 µM | 4.92 µM | 1.3 µM | 2.79 µM | 1.44 µM | 2.81 µM | 1.6 µM | 3.13 µM | 1.27 µM | 2.73 | 2.02 µM | 4.46 µM | 1.17 µM | 2.55 µM | 1.79 µM | 3.49 µM |  | 
Cc1cc2c(cc1C)NC1=C(N2)OC(c2c[nH]c3ccc(COc4ccccc4)cc23)C1=O (stereo unspecified) |  | > 100 |  | > 100 µM |  | > 100 µM |  | > 100 µM |  | > 100 µM |  | 38.7 |  | 49.8 µM |  | > 100 µM |  | > 100 µM | > 100 µM | 
Nc1c(C(=O)Nc2ccc([As](=O)(O)O)cc2)cnc2nnnn12 |  | > 100 |  | > 100 µM |  | > 100 µM |  | > 100 µM |  | > 100 µM |  | > 100 |  | > 100 µM |  | > 100 µM |  | > 100 µM | > 100 µM | 
CC(C)n1c(/C=C/[C@@H](O)C[C@@H](O)CC(=O)O)c(-c2ccc(F)cc2)c2ccccc21 | 33.7 µM and 7.85 µM | > 100 | 3.91 µM and 4.98 µM | > 100 µM | 0.526 µM and 0.537 µM | 34.4 µM and 25 µM | 4.71 µM and 5.31 µM | > 100 µM | 16.8 µM | > 100 µM | 1.43 µM and 0.859 µM | > 100 | 11.4 µM and 13 µM | > 100 µM | 4.91 µM and 3.26 µM | > 100 µM | 5.8 µM and 4.63 µM | > 77.6 µM | 2.99 µM and 2.69 µM | 0.594 µM and 0.542 µM
CC(C)c1ccc2nc3ccc(C(=O)NCCN(C)C)cn3c(=O)c2c1 |  | 34.3 |  | 33.7 µM |  | 32.3 µM |  | 27.8 µM |  | 34.7 µM |  | 22.5 |  | 31.4 µM |  | 29.5 µM |  | 29.6 µM | 45 µM | 
Cc1cc(N(CCNc2ccnc3cc(Cl)ccc23)Cc2ccc3c(c2)OCO3)nc(N2CCN(C)CC2)n1 | 1.81 µM | 3.61 | 2.65 µM | 7.86 µM | 1.9 µM | 3.51 µM | 1.59 µM | 3.29 µM | 4.4 µM | 18.9 µM | 1.44 µM | 3.04 | 2.22 µM | 15.4 µM | 1.43 µM | 2.85 µM | 2.17 µM | 5.54 µM |  | 
C[C@]12CC[C@@H]3c4ccc(O)c([N+](=O)[O-])c4CC[C@H]3[C@@H]1CC[C@@H]2NS(=O)(=O)c1ccc(C(F)(F)F)cc1 | 2.77 µM | 7.26 | 2.11 µM | 4.83 µM | 1.34 µM | 2.78 µM | 2.05 µM | 4.35 µM |  |  | 1.43 µM | 5.73 | 1.83 µM | 3.58 µM | 1.5 µM | 3.19 µM | 1.57 µM | 3.03 µM | 6.24 µM | 2.17 µM
CN1C2CC(C#N)C1C=CC2=O (stereo unspecified) | 40.5 µM and > 100 µM | > 100 | 15.8 µM and 73.2 µM | 32.4 µM and > 100 µM | 27.7 µM and 63.2 µM | > 100 µM | 17.4 µM and > 100 µM | 42.6 µM and > 100 µM | 14.7 µM and 62.1 µM | 28 µM and > 100 µM |  |  | 27.6 µM and > 100 µM | 85.1 µM and > 100 µM | 11.4 µM and > 100 µM | 24.1 µM and > 100 µM | 38.7 µM and > 100 µM | 75.1 µM and > 100 µM |  | 
COc1ccc(OC)c(-c2cc(-c3ccccc3)nn2-c2ccc(S(=O)(=O)NC(C)=O)cc2)c1 | 12.8 µM | 33.1 | 13.2 µM | > 100 µM | 10.9 µM | 22.9 µM | 10.8 µM | 23.4 µM | 22.8 µM | 41.8 µM |  |  |  |  | 25.3 µM | > 100 µM | 16.2 µM | 38.6 µM | 33.9 µM | 13.9 µM
Cc1cc2c(C(C)C)c(O)c(O)c(C=Nc3cc(C(F)(F)F)ccc3Cl)c2c(O)c1-c1c(C)cc2c(C(C)C)c(O)c(O)c(C=Nc3cc(C(F)(F)F)ccc3Cl)c2c1O |  | > 100 |  | > 100 µM |  | 51.8 µM |  | > 100 µM |  | > 100 µM |  |  |  | > 100 µM |  | > 100 µM |  | 77.6 µM | > 100 µM | 
CC(=O)c1cccc(N(/C=C/C(=O)C(F)(F)F)CC(=O)c2ccc(Cl)cc2)c1 | > 100 µM | > 100 | > 100 µM | > 100 µM | > 100 µM | > 100 µM | > 100 µM | > 100 µM | > 100 µM | > 100 µM |  |  | > 100 µM | > 100 µM | > 100 µM | > 100 µM | > 100 µM | > 100 µM | > 100 µM | > 100 µM
C=C1C(=O)O[C@@H]2C[C@@]3(C)CC(=O)C=C(C)[C@@H]3C[C@H]12 |  | 25.7 |  |  |  | 30.4 µM |  | 31.5 µM |  | 28.8 µM |  | 39.6 |  | 34.4 µM |  | 24.1 µM |  | 27.6 µM | 21.6 µM | 
COc1cc(-c2csc(NC(=O)c3cc(C(F)(F)F)cc(C(F)(F)F)c3)n2)cc(OC)c1OC | 2.49 µM | > 100 | 2.97 µM | > 100 µM |  |  | 3.16 µM | > 100 µM | 2.47 µM | > 100 µM | 2.83 µM | > 100 | 3.03 µM | > 100 µM | 2.57 µM | > 100 µM | 2.16 µM | 6.66 µM | > 100 µM | 2.63 µM
C#C[C@]1(O)CC[C@H]2[C@@H]3CC=C4c5nc(Nc6ccccn6)sc5CC[C@]4(C)[C@H]3CC[C@@]21C | 2.22 µM | 5.08 | 1.21 µM | 2.83 µM | 1.15 µM | 2.68 µM | 0.389 µM | 1.69 µM | 1.72 µM | 9.14 µM |  |  | 1.11 µM | 2.95 µM | 1.21 µM | 2.64 µM | 0.692 µM | 2.82 µM | 3.1 µM | 1.26 µM
Cn1cc(C2=C(c3cn(C)c4ccc(N)cc34)C(=O)NC2=O)c2ccccc21 | 23.1 µM | > 25 | 9.53 µM | > 25 µM | 13.1 µM | > 25 µM | 19.7 µM | > 25 µM |  |  | 1.63 µM | > 21.2 | 9.59 µM | > 25 µM | 3.6 µM | > 25 µM | 7.12 µM | > 25 µM | > 25 µM | 4.85 µM
